Test system: 454973-116-R2-J3-PDC spheroids, viability, % test/control
Experiment: Anticancer human tumor 454973-116-R2-J3-PDC patient-derived pancreatic carcinoma cell line growth inhibition [GQUAD]
Conditions: spheroids with HUVEC and MSC; for IC50: curve of first compound; for viability, T/C: stronger effect = lower value
Description: DNA G-quadruplex Stabilizer Agents in Combinations in Complex Spheroids
A high-throughput screen of multi-cell type tumor spheroids was designed to identify active combinations of DNA G-quadruplex stabilizer agents and targeted small molecules. Complex spheroids include a stromal component modeled by human endothelial cells (HUVEC) and fibroblasts modeled by human mesenchymal stem cells (MSCs). The concentration ranges selected for each drug and investigational agent were based upon clinically achievable concentrations if the clinical Cmax of the agent was known.
Compounds. The drugs and investigational agents: pidnarulex (CX-5461; NSC782164), APTO-253 (NSC789042), BRACO-19 (NSC847499), peposertib (NSC802822), ceralasertib (NSC780249), elimusertib (NSC800525), camonsertib (NSC841442), AZD-1390 (NSC803789), olaparib (NSC753686), talazoparib (NSC767125), ART-558 (NSC835418), sotorasib (NSC818433), MRTX-1133 (NSC836407), SN-38 (NSC673596), topotecan (NSC609699), etoposide (NSC141540), doxorubicin (NSC123127), gemcitabine (NSC613327), 5-fluorouracil (NSC19893), paclitaxel (NSC125973), vemurafenib (NSC761431), panobinostat (NSC761190), R-306465 (JNJ-16241199; NSC773264), adavosertib (NSC754352), TP-3654 (NSC805149), carboplatin (NSC241240), KSQ-4279 (NSC840948), and staurosporine (NSC755774) were obtained from the National Cancer Institute (NCI) Developmental Therapeutics Program Chemical Repository (34). The FDA-approved anticancer drug set is available from the NCI Developmental Therapeutics Program. […] The stock solutions were prepared in dimethyl sulfoxide (DMSO, Sigma-Aldrich, St. Louis, MO, cat. D2650) at 800-fold the tested concentration and stored at -70 degrees C prior to their use. All drugs and investigational agents were tested over a range starting from a high concentration at or near the clinical Cmax and decreasing in half-log increments. If the clinical Cmax for an agent had not been determined, the highest concentration tested was 10 microM.
2.3 Cell Culture. All cells were maintained in an incubator at 37 degrees C and 5% CO2 with 95% humidity. The PDC lines were cultured according to standard operating procedures established by the NCI PDMR. All PDCs were thawed and cultured in Matrigel-coated flasks prepared with a working solution of 1X Ham's F-12 nutrient mix, without supplementation (Invitrogen, cat. 11765054), 100 U/mL penicillin-streptomycin (Invitrogen, cat. 15140122), and 2.5% Matrigel (Corning Inc., cat. 354248) for the first three passages. The 857933-349-R-J2-PDC line was cultured in 6C/Colon 1B media, which includes advanced DMEM/F-12 (Thermo Fisher Scientific, cat. 12634028), 10 mM HEPES (Thermo Fisher Scientific, cat. 15630080), 1X GlutaMAX supplement (Thermo Fisher Scientific, cat. 35050061), 0.1 mg/mL primocin (InvivoGen, cat. ant-pm-2), 10% defined fetal bovine serum, heat inactivated (HyClone Laboratories Inc., cat. SH30070.03HI), 50% L-WRN conditioned media (ATCC, cat. CRL-3276), 1.25 mM N-Acetyl-L-cysteine (Sigma-Aldrich, cat. A9165), 10 mM nicotinamide (Sigma-Aldrich, cat. N0636), 1X B-27 supplement (Thermo Fisher Scientific, cat. 17504044), 1X N-2 supplement (Thermo Fisher Scientific, cat. 17502048), 10 microM Y-27632 dihydrochloride (Tocris Bioscience, cat. 1254), and 50 ng/mL human EGF recombinant protein (Thermo Fisher Scientific, cat. PHG0311). The 485176-168-R4-J1-PDC line was cultured in Panc media, which includes all 6C/Colon 1B media components plus 100 ng/mL human FGF-10 (Thermo Fisher Scientific, cat. 100-26), 500 nM SB-431542 (Selleckchem, cat. S1067), and gastrin (Tocris, cat. 3006).
[…]
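Also: spheroids exposed to compounds for seven days.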

**Q.** For Cn1ncnc1[C@H]1c2n[nH]c(=O)c3cc(F)cc(c23)N[C@@H]1c1ccc(F)cc1 + Cc1cnc(CNC(=O)c2c(=O)c3ccc(N4CCCN(C)CC4)nc3n3c2sc2ccccc23)cn1, which IC50 (second compound 0.0316 µM) is on record?
**A.** Its IC50 is greater than 0.316 µM.

**Q.** What about the IC50 (second compound 0.1 µM) of the same compound?
**A.** Its IC50 is 0.0768 µM.

**Q.** And the IC50 (second compound 0.316 µM)?
**A.** The IC50 was 0.0518 µM.

**Q.** And the IC50 (second compound 1 µM)?
**A.** Its IC50 is greater than 0.316 µM.

**Q.** What about the IC50 (second compound 3.16 µM) of the same compound?
**A.** The IC50 was greater than 0.316 µM.

**Q.** What about the IC50 (second compound 10 µM) of the same compound?
**A.** Its IC50 is less than 0.000999 µM.

**Q.** What about the viability, T/C (second compound 0.0316 µM, first compound 0.000999 µM) of the same compound?
**A.** The viability, T/C was 108%.

**Q.** And the viability, T/C (second compound 0.0316 µM, first compound 0.00316 µM)?
**A.** Its viability, T/C is 90.2%.

**Q.** And the viability, T/C (second compound 0.0316 µM, first compound 0.00999 µM)?
**A.** Its viability, T/C is 91.4%.

**Q.** What about the viability, T/C (second compound 0.0316 µM, first compound 0.0316 µM) of the same compound?
**A.** Its viability, T/C is 80.8%.

**Q.** And the viability, T/C (second compound 0.0316 µM, first compound 0.0999 µM)?
**A.** Its viability, T/C is 70%.

**Q.** And the viability, T/C (second compound 0.0316 µM, first compound 0.316 µM)?
**A.** Its viability, T/C is 59%.

**Q.** And the viability, T/C (second compound 0.1 µM, first compound 0.000999 µM)?
**A.** Its viability, T/C is 83.1%.

**Q.** And the viability, T/C (second compound 0.1 µM, first compound 0.00316 µM)?
**A.** The viability, T/C was 88.3%.

**Q.** And the viability, T/C (second compound 0.1 µM, first compound 0.00999 µM)?
**A.** Its viability, T/C is 71.8%.

**Q.** What about the viability, T/C (second compound 0.1 µM, first compound 0.0316 µM) of the same compound?
**A.** Its viability, T/C is 60%.

**Q.** What about the viability, T/C (second compound 0.1 µM, first compound 0.0999 µM) of the same compound?
**A.** The viability, T/C was 48.8%.

**Q.** And the viability, T/C (second compound 0.1 µM, first compound 0.316 µM)?
**A.** The viability, T/C was 36.6%.

**Q.** What about the viability, T/C (second compound 0.316 µM, first compound 0.000999 µM) of the same compound?
**A.** Its viability, T/C is 75.8%.

**Q.** What about the viability, T/C (second compound 0.316 µM, first compound 0.00316 µM) of the same compound?
**A.** Its viability, T/C is 70.3%.

**Q.** And the viability, T/C (second compound 0.316 µM, first compound 0.00999 µM)?
**A.** The viability, T/C was 65.3%.

**Q.** What about the viability, T/C (second compound 0.316 µM, first compound 0.0316 µM) of the same compound?
**A.** Its viability, T/C is 51.4%.

**Q.** And the viability, T/C (second compound 0.316 µM, first compound 0.0999 µM)?
**A.** Its viability, T/C is 47.2%.

**Q.** What about the viability, T/C (second compound 0.316 µM, first compound 0.316 µM) of the same compound?
**A.** The viability, T/C was 41.6%.

**Q.** What about the viability, T/C (second compound 1 µM, first compound 0.000999 µM) of the same compound?
**A.** Its viability, T/C is 64.1%.

**Q.** And the viability, T/C (second compound 1 µM, first compound 0.00316 µM)?
**A.** The viability, T/C was 64.6%.

**Q.** And the viability, T/C (second compound 1 µM, first compound 0.00999 µM)?
**A.** Its viability, T/C is 62%.

**Q.** What about the viability, T/C (second compound 1 µM, first compound 0.0316 µM) of the same compound?
**A.** The viability, T/C was 53.3%.

**Q.** What about the viability, T/C (second compound 1 µM, first compound 0.0999 µM) of the same compound?
**A.** The viability, T/C was 56.3%.

**Q.** And the viability, T/C (second compound 1 µM, first compound 0.316 µM)?
**A.** The viability, T/C was 48.6%.

**Q.** What about the viability, T/C (second compound 3.16 µM, first compound 0.000999 µM) of the same compound?
**A.** The viability, T/C was 62.1%.

**Q.** What about the viability, T/C (second compound 3.16 µM, first compound 0.00316 µM) of the same compound?
**A.** The viability, T/C was 53.4%.

**Q.** What about the viability, T/C (second compound 3.16 µM, first compound 0.00999 µM) of the same compound?
**A.** The viability, T/C was 60.2%.

**Q.** What about the viability, T/C (second compound 3.16 µM, first compound 0.0316 µM) of the same compound?
**A.** The viability, T/C was 58.5%.

**Q.** What about the viability, T/C (second compound 3.16 µM, first compound 0.0999 µM) of the same compound?
**A.** The viability, T/C was 57.1%.

**Q.** And the viability, T/C (second compound 3.16 µM, first compound 0.316 µM)?
**A.** The viability, T/C was 53.6%.

**Q.** And the viability, T/C (second compound 10 µM, first compound 0.000999 µM)?
**A.** Its viability, T/C is 0.31%.

**Q.** And the viability, T/C (second compound 10 µM, first compound 0.00316 µM)?
**A.** The viability, T/C was 0.55%.

**Q.** And the viability, T/C (second compound 10 µM, first compound 0.00999 µM)?
**A.** The viability, T/C was 31%.

**Q.** What about the viability, T/C (second compound 10 µM, first compound 0.0316 µM) of the same compound?
**A.** The viability, T/C was 36.7%.

**Q.** And the viability, T/C (second compound 10 µM, first compound 0.0999 µM)?
**A.** Its viability, T/C is 0.53%.

**Q.** And the viability, T/C (second compound 10 µM, first compound 0.316 µM)?
**A.** Its viability, T/C is 0.27%.
